We go through 17 compounds from PubChem BioAssay AID402 (SGCOxCompounds, 2006).

What is called inhibition is the share of the control response that was lost under treatment.

Structures are written as SMILES.

In the assay the target is Tyrosine-protein phosphatase non-receptor type 14 (Homo sapiens) (UniProt Q15678). The experiment in a line: inhibition of PTPN14 enzymatic activity – biochemical, human, DiFMUP fluorescence (AID 402). To be noted: recombinant PTPN14, DiFMUP fluorescence phosphatase assay; at 50 µM; stronger effect = higher value.
Tyrosine-protein phosphatase non-receptor type 14 (Homo sapiens), sequence (Q15678 whole entry, looked up): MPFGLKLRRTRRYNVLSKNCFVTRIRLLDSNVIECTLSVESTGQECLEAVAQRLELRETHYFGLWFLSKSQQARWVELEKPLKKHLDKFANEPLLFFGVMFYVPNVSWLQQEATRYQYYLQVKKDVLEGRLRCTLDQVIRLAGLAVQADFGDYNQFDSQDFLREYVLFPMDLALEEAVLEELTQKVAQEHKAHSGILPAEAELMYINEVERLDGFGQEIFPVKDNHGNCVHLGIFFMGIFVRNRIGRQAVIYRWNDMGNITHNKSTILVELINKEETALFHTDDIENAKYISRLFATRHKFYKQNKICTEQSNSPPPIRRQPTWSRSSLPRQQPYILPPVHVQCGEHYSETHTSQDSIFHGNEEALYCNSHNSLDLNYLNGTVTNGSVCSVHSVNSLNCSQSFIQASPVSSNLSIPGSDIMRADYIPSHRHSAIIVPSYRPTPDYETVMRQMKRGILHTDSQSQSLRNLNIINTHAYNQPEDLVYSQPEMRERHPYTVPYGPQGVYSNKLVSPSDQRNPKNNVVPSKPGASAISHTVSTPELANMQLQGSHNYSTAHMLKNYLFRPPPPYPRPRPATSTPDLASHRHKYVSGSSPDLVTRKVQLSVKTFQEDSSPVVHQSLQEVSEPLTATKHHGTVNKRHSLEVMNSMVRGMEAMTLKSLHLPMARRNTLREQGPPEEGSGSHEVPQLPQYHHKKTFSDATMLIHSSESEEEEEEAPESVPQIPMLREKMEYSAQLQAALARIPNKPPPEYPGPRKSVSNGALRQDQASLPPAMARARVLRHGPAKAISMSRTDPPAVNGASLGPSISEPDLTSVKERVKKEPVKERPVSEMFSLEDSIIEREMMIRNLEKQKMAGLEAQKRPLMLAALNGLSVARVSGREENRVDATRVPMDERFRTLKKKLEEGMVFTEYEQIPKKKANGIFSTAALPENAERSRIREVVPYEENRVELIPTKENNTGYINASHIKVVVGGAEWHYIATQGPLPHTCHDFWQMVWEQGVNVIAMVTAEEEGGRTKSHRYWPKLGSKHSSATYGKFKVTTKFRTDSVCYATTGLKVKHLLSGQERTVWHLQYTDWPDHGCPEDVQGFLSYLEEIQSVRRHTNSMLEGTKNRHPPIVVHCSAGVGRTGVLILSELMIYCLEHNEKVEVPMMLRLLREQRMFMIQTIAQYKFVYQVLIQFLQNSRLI
Take `O=C([O-])c1ccccn1.OO.OO.[K+].[K+].[O]=[V]`: the inhibition was 73%.

Regarding `CCn1nc(-c2ccc(Cl)cc2)nc2c(=O)n(C)c(=O)nc1-2`, the inhibition is 30.5%.

For `O=P(O)(O)Oc1cccc2ccccc12`, the inhibition was 26%. As for `CN(N=O)c1ccc(O)c(O)c1`, the inhibition was 68%.

Turning to `CCn1nc(-c2ccccc2)nc2c(=O)n(C)c(=O)nc1-2`, the inhibition was 25.5%.

For the compound `OO.OO.[K+].[O]=[V].c1cnc2c(c1)ccc1cccnc12`, the inhibition was 49%. With `O=P(O)(O)OC(CO)CO`, the inhibition was 27%. Regarding `c1ccc([C@H]2CN3CCSC3=N2)cc1`, the inhibition was 27%. Consider `CCn1nc(/C=C/c2ccccc2)nc2c(=O)n(C)c(=O)nc1-2`, for which the inhibition is 24%. With `Cn1c(=O)[nH]c2c(c1=O)[n+](=O)c(/C=C/c1ccccc1)nn2C`, the inhibition was 28%. The value for `[NH-]CO.[NH-]CO.[NH-]CO.[NH-]CO.[O]=[V][O][V]=[O]` was 28.5%; that for `Cn1nc(/C=C/c2ccccc2)nc2c(=O)n(C)c(=O)nc1-2` was 37%.

For the compound `O=C(O)c1ccc(O)cn1.OO.[O]=[V]`, the inhibition is 62.5%.

Consider `CCn1nc(/C=C/c2ccccc2)[n+](=O)c2c(=O)n(C)c(=O)[nH]c21`, for which the inhibition was 33%.

In the case of `O=C(O)c1ccc([O-])cn1.OO.OO.[K+].[K+].[O]=[V]`, the inhibition is 70%. Turning to `Cn1nc(-c2ccccc2)nc2c(=O)n(C)c(=O)nc1-2`, the inhibition is 39.5%.

Take `OO.OO.[K+].[O]=[V].c1ccc(-c2ccccn2)nc1`: the inhibition is 72%.
